From US9193744B2, “Heterocyclic nuclear hormone receptor modulators” (AbbVie Inc., priority 2012, dated 2015)
pIC50: −log10 of the molar value. Where two headings read alike, the source gives them in different places.

Experiments:
IL-6 = assay: A549 Cell Assay to Measure Inflammation Markers (inhibition of IL-1β-induced IL-6); format: cell-based; settings: Homo sapiens
Description: A549 Cell Assay to Measure Inflammation Markers
A549 cells were seeded (3E4 cells/well) in 96-well assay plates in culture medium (100 μL/well., F-12 K base media, supplemented with 10% FBS and 100 μ/mL-100 μg/mL Pen-Strep.) After overnight culture in an incubator set to 37° C., 4.9% CO2, and 90% humidity, media was removed from adherent cells by aspiration and replaced with 100 μL/well Assay Medium (F-12 K base media supplemented with 5% charcoal stripped calf sera and 100 U/mL-100 μg/mL Pen-Strep.) Compounds were prepared in DMSO and serial diluted (1:3, 1:4, or 1:5) with DMSO in Dilution Plate(s) to give 10 dilution points for each compound tested. Further dilution (1:250) of compound was made into assay medium and 50 μL/well diluted drug or DMSO/media control was applied to cells. After a 1 h pre-incubation in a temperature, CO2, and humidity controlled incubator, set to 37° C., 50 μL/well of 4 ng/mL IL-1β diluted in assay media, was applied to cultures. Assay plates, with a final volume of 200 μL/well and final concentrations of 0.1% DMSO and 1 ng/mL IL-1β were returned to incubator for a four h incubation period. Next, plates were spun at 183 g (1000 rpm in Beckman/Coulter Allegra 6KR centrifuge) for 10 min. Cell-free supernatant (150 μL/well) was collected and IL-6 was measured by MSD kit, following protocol of manufacturer, and using MSD SECTOR Imager 6000 instrument. Potency of compounds to inhibit IL-6 was determined using the percent reduction of measured IL-6 in wells with compound compared to control wells without drug, and relative to (100% inhibition) positive control compound of 1 μM prednisolone. Results were represented as IC50 and Emax values. To verify that viable cell numbers were similar across plate(s), and not confounding compound IC50 data interpretation, the remaining 50 μL/well of cells and media (after removal of supernatant) were used to run Cell Titer-Glo Assay per directions of manufacturer.

[1] = target: T1, Glucocorticoid Receptor (GR) (Homo sapiens, UniProt P04150); assay: GR Fluorescence Polarization Assay (PolarScreen Glucocorticoid Receptor Competitor Assay, Red); settings: fluorescence polarization binding ranges
T1 construct: purchased Invitrogen P2893
T1 sequence (P04150 1-777): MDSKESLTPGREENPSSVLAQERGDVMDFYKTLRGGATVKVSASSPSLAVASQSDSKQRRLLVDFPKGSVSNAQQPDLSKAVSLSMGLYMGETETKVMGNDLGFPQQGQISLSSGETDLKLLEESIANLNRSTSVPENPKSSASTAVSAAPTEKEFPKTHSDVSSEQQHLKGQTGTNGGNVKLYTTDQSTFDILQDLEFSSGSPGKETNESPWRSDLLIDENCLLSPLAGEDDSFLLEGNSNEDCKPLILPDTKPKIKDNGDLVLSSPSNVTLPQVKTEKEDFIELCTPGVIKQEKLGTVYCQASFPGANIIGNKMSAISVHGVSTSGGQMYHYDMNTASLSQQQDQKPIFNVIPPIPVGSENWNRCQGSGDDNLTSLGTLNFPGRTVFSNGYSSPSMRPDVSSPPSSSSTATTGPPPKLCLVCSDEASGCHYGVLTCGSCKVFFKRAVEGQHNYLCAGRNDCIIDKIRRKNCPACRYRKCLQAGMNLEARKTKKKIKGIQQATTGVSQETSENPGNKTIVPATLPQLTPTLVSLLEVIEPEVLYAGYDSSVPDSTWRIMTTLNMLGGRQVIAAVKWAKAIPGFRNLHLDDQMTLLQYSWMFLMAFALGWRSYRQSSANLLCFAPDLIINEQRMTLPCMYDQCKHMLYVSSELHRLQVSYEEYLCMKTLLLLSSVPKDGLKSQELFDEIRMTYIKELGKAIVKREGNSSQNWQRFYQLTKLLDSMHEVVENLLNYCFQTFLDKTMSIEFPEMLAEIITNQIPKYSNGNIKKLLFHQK
Description: Fluorescence polarization assays were carried out using the PolarScreen™ Glucocorticoid Receptor Competitor Assay, Red from Invitrogen (P2893). The assay buffer was prepared according to the manufacturer's protocol and used to dilute the fluorescent glucocorticoid and GR. Compounds were prepared and serial diluted 1:4 in DMSO. Compound, fluorescent glucocorticoid and GR were added in a final volume of 20 μL and incubated overnight at 4° C. Fluorescent polarization was measured on the PerkinElmer Envision®. Fluorescence polarization binding ranges measured using GR Fluorescence Polarization Assay: […]

[2] = A549 cells, read-out: A549 cell assay
[3] = A549, read-out: A549 cell assay

In the case of `CCOC[C@@]1(O)CC[C@]2(CC)c3cc4cnn(-c5ccc(F)cc5)c4cc3CCC[C@H]2C1` (single isomer, unassigned) [Example 10], the pIC50 (IL-6; [2]) was less than 5.00 and the pIC50 [1] was 6.00 to 7.00.

`C[C@@]1(O)CC[C@@]2(Cc3ccccn3)c3cc4cnn(-c5ccc(F)cc5)c4cc3CCC[C@H]2C1` (single isomer, unassigned) [Example 15] was tested, and the pIC50 (IL-6; [2]) was greater than 7.00 and the pIC50 [1] was greater than 7.00.

Work on `C[C@]1(O)CC[C@]2(Cc3ccccn3)c3cc4cnn(-c5ccc(F)cc5)c4cc3CCC[C@@H]2C1` (single isomer, unassigned) [Example 16] yielded a pIC50 (IL-6; [2]) greater than 7.00 and a pIC50 [1] greater than 7.00.

`N#CC[C@@]1(O)CC[C@@]2(Cc3ccccn3)c3cc4cnn(-c5ccc(F)cc5)c4cc3CCC[C@H]2C1` (single isomer, unassigned) [Example 17] was tested, and the pIC50 (IL-6; [2]) was greater than 7.00 and the pIC50 [1] was greater than 7.00.

`N#CC[C@]1(O)CC[C@]2(Cc3ccccn3)c3cc4cnn(-c5ccc(F)cc5)c4cc3CCC[C@@H]2C1` (single isomer, unassigned) [Example 18] showed a pIC50 (IL-6; [2]) greater than 7.00 and a pIC50 [1] greater than 7.00.

In the case of `N#C[C@@]12CC[C@](O)(C(F)(F)F)C[C@H]1CCCc1cc3c(cnn3-c3ccc(F)cc3)cc12` (single isomer, unassigned) [Example 72], the pIC50 (IL-6; [2]) was 6.00 to 7.00 and the pIC50 [1] was greater than 7.00.

`N#C[C@]12CC[C@@](O)(C(F)(F)F)C[C@@H]1CCCc1cc3c(cnn3-c3ccc(F)cc3)cc12` (single isomer, unassigned) [Example 73] showed a pIC50 (IL-6; [3]) of less than 5.00 and a pIC50 [1] of 6.00 to 7.00.

Compound `N#CC[C@@]12CC[C@](O)(C(F)(F)F)C[C@H]1CCCc1cc3c(cnn3-c3ccc(F)cc3)cc12` (single isomer, unassigned) [Example 81] has a pIC50 (IL-6; [3]) greater than 7.00 and a pIC50 [1] greater than 7.00.

`N#CC[C@]12CC[C@@](O)(C(F)(F)F)C[C@@H]1CCCc1cc3c(cnn3-c3ccc(F)cc3)cc12` (single isomer, unassigned) [Example 82] gave a pIC50 (IL-6; [2]) of 6.00 to 7.00 and a pIC50 [1] greater than 7.00.

With `CC(=O)NC[C@]12CC[C@@](O)(C(F)(F)F)C[C@@H]1CCCc1cc3c(cnn3-c3ccc(F)cc3)cc12` (single isomer, unassigned) [Example 83] the pIC50 (IL-6; [2]) was 6.00 to 7.00 and the pIC50 [1] was 6.00 to 7.00.

With `CC(=O)NC[C@@]12CC[C@](O)(C(F)(F)F)C[C@H]1CCCc1cc3c(cnn3-c3ccc(F)cc3)cc12` (single isomer, unassigned) [Example 84] the pIC50 (IL-6; [2]) was greater than 7.00 and the pIC50 [1] was greater than 7.00.

In the case of `O=C(NC1CC1)[C@]12CC[C@@](O)(C(F)(F)F)C[C@@H]1CCCc1cc3c(cnn3-c3ccc(F)cc3)cc12` (single isomer, unassigned) [Example 87], the pIC50 (IL-6; [2]) was 5.00 to 6.00 and the pIC50 [1] was greater than 7.00.

`CC[C@@]12CC[C@](O)(C(F)(F)F)[C@@H](O)[C@@H]1CCCc1cc3c(cnn3-c3ccc(F)cc3)cc12` (single isomer, unassigned) [Example 96] gave a pIC50 (IL-6; [2]) greater than 7.00 and a pIC50 [1] greater than 7.00.

Compound `CC[C@]12CC[C@@](O)(C(F)(F)F)[C@H](O)[C@H]1CCCc1cc3c(cnn3-c3ccc(F)cc3)cc12` (single isomer, unassigned) [Example 97] has a pIC50 (IL-6; [2]) greater than 7.00 and a pIC50 [1] greater than 7.00.

Work on `CC[C@@]12C[C@@H](O)[C@](O)(C(F)(F)F)C[C@@H]1CCCc1cc3c(cnn3-c3ccc(F)cc3)cc12` (single isomer, unassigned) [Example 98] yielded a pIC50 (IL-6; [2]) greater than 7.00 and a pIC50 [1] greater than 7.00.

`CC[C@]12C[C@H](O)[C@@](O)(C(F)(F)F)C[C@H]1CCCc1cc3c(cnn3-c3ccc(F)cc3)cc12` (single isomer, unassigned) [Example 99] was tested, and the pIC50 (IL-6; [2]) was greater than 7.00 and the pIC50 [1] was greater than 7.00.

`CC[C@@]12CC[C@](O)(C(F)(F)F)C[C@H]1CC[C@H](O)c1cc3c(cnn3-c3ccc(F)cc3)cc12` (single isomer, unassigned) [Example 104] was tested, and the pIC50 (IL-6; [2]) was greater than 7.00 and the pIC50 [1] was greater than 7.00.

For `CC[C@@]12CC[C@](O)(C(F)(F)F)C=C1CCCc1cc3c(cnn3-c3ccc(F)cc3)cc12` (single isomer, unassigned) [Example 106], the pIC50 (IL-6; [2]) was greater than 7.00 and the pIC50 [1] was greater than 7.00.

In the case of `CC[C@]12CC[C@@](O)(C(F)(F)F)C=C1CCCc1cc3c(cnn3-c3ccc(F)cc3)cc12` (single isomer, unassigned) [Example 107], the pIC50 (IL-6; [2]) was 6.00 to 7.00 and the pIC50 [1] was greater than 7.00.

`C#C[C@@]1(O)CC[C@@]2(CC)c3cc4cnn(-c5ccc(F)cc5)c4cc3CCC[C@@H]2C1` (single isomer, unassigned) [Example 109] gave a pIC50 (IL-6; [2]) greater than 7.00 and a pIC50 [1] greater than 7.00.

For `C#C[C@]1(O)CC[C@]2(CC)c3cc4cnn(-c5ccc(F)cc5)c4cc3CCC[C@H]2C1` (single isomer, unassigned) [Example 110], the pIC50 (IL-6; [2]) was 6.00 to 7.00 and the pIC50 [1] was greater than 7.00.

Compound `CC[C@@]12CC(=O)[C@](O)(C(F)(F)F)C[C@H]1CCCc1cc3c(cnn3-c3ccc(F)cc3)cc12` (single isomer, unassigned) [Example 115] has a pIC50 (IL-6; [2]) of 6.00 to 7.00 and a pIC50 [1] of 6.00 to 7.00.

`CC[C@]12CC(=O)[C@@](O)(C(F)(F)F)C[C@@H]1CCCc1cc3c(cnn3-c3ccc(F)cc3)cc12` (single isomer, unassigned) [Example 116] gave a pIC50 (IL-6; [2]) of 6.00 to 7.00 and a pIC50 [1] of 6.00 to 7.00.

Work on `CC[C@@]12C[C@@](C)(O)[C@](O)(C(F)(F)F)C[C@H]1CCCc1cc3c(cnn3-c3ccc(F)cc3)cc12` (single isomer, unassigned) [Example 117] yielded a pIC50 (IL-6; [2]) greater than 7.00 and a pIC50 [1] greater than 7.00.

In the case of `CC[C@]12C[C@](C)(O)[C@@](O)(C(F)(F)F)C[C@@H]1CCCc1cc3c(cnn3-c3ccc(F)cc3)cc12` (single isomer, unassigned) [Example 118], the pIC50 (IL-6; [2]) was 6.00 to 7.00 and the pIC50 [1] was greater than 7.00.

Compound `CC[C@@]12C[C@@H](O)[C@](O)(C(F)(F)F)C[C@H]1CCCc1cc3c(cnn3-c3ccc(F)cc3)cc12` (single isomer, unassigned) [Example 119] has a pIC50 (IL-6; [2]) greater than 7.00 and a pIC50 [1] greater than 7.00.

In the case of `CC[C@@]12C[C@H](O)[C@](O)(C(F)(F)F)C[C@H]1CCCc1cc3c(cnn3-c3ccc(F)cc3)cc12` (single isomer, unassigned) [Example 121], the pIC50 (IL-6; [2]) was greater than 7.00 and the pIC50 [1] was greater than 7.00.

In the case of `CC[C@]12C[C@@H](O)[C@@](O)(C(F)(F)F)C[C@@H]1CCCc1cc3c(cnn3-c3ccc(F)cc3)cc12` (single isomer, unassigned) [Example 122], the pIC50 (IL-6; [2]) was greater than 7.00 and the pIC50 [1] was greater than 7.00.

For `CC[C@@]12CC[C@](O)(COC)C[C@@H]1CCCc1cc3c(cnn3-c3ccncc3)cc12` (single isomer, unassigned) [Example 123], the pIC50 (IL-6; [2]) was greater than 7.00 and the pIC50 [1] was greater than 7.00.

`CC[C@@]12CC[C@](O)(COC)C[C@@H]1CCOc1cc3c(cnn3-c3ccnc(C)c3)cc12` (single isomer, unassigned) [Example 128] showed a pIC50 (IL-6; [2]) greater than 7.00 and a pIC50 [1] greater than 7.00.

For `CC[C@@]12CC[C@](O)(C(F)(F)F)C[C@H]1CCOc1cc3c(cnn3-c3ccc(F)cc3)cc12` (single isomer, unassigned) [Example 146], the pIC50 (IL-6; [2]) was greater than 7.00 and the pIC50 [1] was greater than 7.00.

In the case of `CC[C@]12CC[C@@](O)(C(F)(F)F)C[C@@H]1CCOc1cc3c(cnn3-c3ccc(F)cc3)cc12` (single isomer, unassigned) [Example 147], the pIC50 (IL-6; [2]) was 6.00 to 7.00 and the pIC50 [1] was greater than 7.00.

`C[C@@]1(O)CC[C@@]2(Cc3ccccn3)c3cc4cnn(-c5ccc(F)cc5)c4nc3CCC[C@H]2C1` (single isomer, unassigned) [Example 149] gave a pIC50 (IL-6; [2]) greater than 7.00 and a pIC50 [1] greater than 7.00.
